Tests used:
HUVEC cells = test: Viability (ATPLITE) of senescent and proliferating HUVEC endothelial cells; format: cell-based, human; details: enzastaurin in combination with dasatinib, FIG. 4E, 48 hours
Description: Human umbilical endothelial cells (HUVEC) (Lonza Group, Basel, Switzerland) were induced to senescence by exposure to 10 Gy radiation. Twenty days after irradiation, markers of cellular senescence (SA-β Gal) and growth arrest, determined by incorporation of BR dU, were evident. Non-senescent HUVEC cells used as control were plated at low density in culture media so that the cells were proliferating when exposed to the test drug. Senescent HUVEC cells and non-senescent, proliferating HUVEC cells were treated for 48 hours with quercetin, dasatinib, and enzastaurin as follows: (1) quercetin alone at 3.75, 7.5 and 15μ,M; (2) dasatinib alone at 25, 50, 100, and 200 nM; (3) enzastaurin alone at concentrations of 0.25 0.5 1 and 2 μM; (4) dasatinib at 100 nM plus quercetin at 7.5 μM; (5) with dasatinib at 50 nM plus quercetin at 7.5 μM; (6) dasatinib at 100 nM plus enzastaurin at 1.0 μM; (7) dasatinib at 100 nM plus enzastaurin at 0.5 μM; (8) dasatinib at 50 nM plus enzastaurin at 1.0 μM; (9) dasatinib at 50 nM plus enzastaurin at 0.5 μM; (10) quercetin at 15 μM and enzastaurin at 1.0 μM; (11) quercetin at 15 μM and enzastaurin at 1.0 μM; and (12) quercetin at 7.5 μM and enzastaurin at 1.0 μM. The number of viable cells was determined by ATPLITE (Perkin-Elmer, Waltham, Mass.). The data are presented in FIGS. 4A-4F as mean viability (ATP (μM))+SEM of 4.

IMR90 cells = test: Killing of radiation-induced senescent vs proliferating IMR90 fibroblasts; format: cell-based, human; details: enzastaurin at 0.25 0.5 and 2 μM
Source text: Senescence of human primary lung fibroblasts (IMR90) (IMR-90 (ATCC® CCL-186TH, Mannassas, Va.) was induced by irradiation. IMR90 cells in culture were subjected to 10 Gy radiation (Day-7). Four days after irradiation (Day-3), the culture media was changed. Three days after the media change (Day 0), the cells were exposed to media containing quercetin. Non-irradiated IMR90 cells were included as controls. Non-irradiated and irradiated IMR90 cells were exposed to quercetin at concentrations of 5, 10, 15, and 45 μM. Percent survival was determined four days after exposure to the drugs (Day 4). The number of viable cells was determined by using ATPLITE (Perkin-Elmer, Waltham, Mass.).
In a separate experiment, IMR90 cells were irradiated as described above to induce senescence. Approximately 20 days after irradiation, the senescent cells and proliferating IMR90 cells were exposed to enzastaurin at concentrations of 0.25 0.5 and 2 μM.

[1] = Insulin Tolerance Testing (ITT); format: in vivo, mice
Description: Insulin sensitivity was also determined (Insulin Tolerance Testing (ITT)).

[2] = Glucose tolerance testing in DIO INK-ATTAC,p16-3MR mice; format: in vivo; details: compared to vehicle-treated DIO mice
Description: Three-month old INK-ATTAC,p16-3MR mice were fed a high fat diet for 4 months. The animals were then treated with ganciclovir or vehicle. DIO mice were treated with ganciclovir on September 1 (see FIG. 21).

[3] = Weight, body composition and food intake monitoring; format: in vivo; details: p16-3MR mice, high fat diet
Source text: Changes in weight, body composition, and food intake were also monitored.

[4] = Glucose tolerance test and hemoglobin A1c in high fat fed p16-3MR mice; format: in vivo; details: high fat diet, 3 rounds of 25 mg/kg daily for five days
Description: Groups of p16-3MR mice (n=9) were fed a high fat diet for four months mice or a regular chow diet. Animals were then treated with ganciclovir (3 rounds of 25 mg/kg ganciclovir administered daily for five consecutive days) or vehicle. A glucose bolus was given at time zero, and blood glucose was monitored at 20, 30, 60, and 120 minutes after delivering glucose to determine glucose disposal (see FIG. 18A). This was also quantified as “area under the curve” (AUC) (see FIGS. 18B and 18C), with a higher AUC value indicating glucose intolerance.

Senescent cells = test: SA-β-Gal senescent cells in adipose tissue of high fat fed p16-3MR mice; format: in vivo; details: high fat diet four months, 25 mg/kg daily for five consecutive days, p=<0.004
Description: Groups of p16-3MR mice (n=6) were fed a high fat diet (60% fat) for four months mice or a regular chow diet. The presence of senescence cells was determined by measuring luminescence (i.e., p16 positive cells). […] Animals were then treated with ganciclovir or vehicle to determine if removal of senescent cells reduced the presence of senescent cells in adipose tissue. Groups of animals were treated with ganciclovir (GCV) or vehicle. Ganciclovir (25 mg/kg) was administered daily for five consecutive days. The presence of senescent cells in perirenal, epididymal, or subcutaneous inguinal adipose tissue was detected by SA-β-Gal staining Data were analyzed by ANOVA.

Cn1cc(C2=C(c3cn(C4CCN(Cc5ccccn5)CC4)c4ccccc34)C(=O)NC2=O)c2ccccc21 [Enzastaurin, 3-(1-Methylindol-3-yl)-4-[1-[1-(pyridin-2-ylmethyl)piperidin-4-yl]indol-3-yl]pyrrole-2,5-dione]
potentiating effect of dasatinib (HUVEC cells): slight potentiating effect
killing of proliferating IMR90 cells (IMR90 cells): did not kill the proliferating cells
selective killing of senescent IMR90 cells (IMR90 cells; approximately 20 days after 10 Gy irradiation): did not selectively kill the senescent cells

Nc1nc(O)c2ncn(COC(CO)CO)c2n1 [ganciclovir]
decrease in blood glucose in insulin tolerance testing ([1]; p16-3MR mice fed a high fat diet, 0, 14, 30, 60, and 120 minutes): greater decrease in blood glucose
change in insulin tolerance testing ([1]; wild-type mice): not observed
glucose tolerance (areas under the curve in glucose tolerance tests) [2]: sustained and improved glucose tolerance
body composition (percent of fat) [3]: did not alter
body weight [3]: did not alter
food intake (grams per week) [3]: did not alter
Hemoglobin A1c [4]: lower
glucose tolerance test AUC ([4]; vs vehicle-treated): significantly lower
presence of senescent cells in epididymal fat (SA-β-Gal) (Senescent cells): significant reduction

— US11517572B2, “Killing senescent cells and treating senescence-associated conditions using a SRC inhibitor and a flavonoid” (Mayo Foundation for Medical Education and Research, priority 2014, dated 2022)
